Experimental data taken from a melting point compilation (Tetko et al.; mined from patent text by program, amines drawn as free bases though some values may be those of a salt).

Compound | melting point
O=C(CCCCCl)c1cc2c(c([N+](=O)[O-])c1)OCC2 | 91 to 92 °C
COc1cc(COc2nn(-c3ccccc3)cc2/C=C/c2csc(C(C)(C)C)n2)ccc1OCc1nc(-c2ccc(CC(=O)O)cc2)oc1C | 113 to 115 °C
CC(C#N)(C#N)Cc1ccc(Cl)cc1 | 91.1 °C
CC(C)C(NC(=O)c1ccccc1)C(=O)O (racemic) | 125 to 128 °C
CCC(CC)c1ccc(C(=O)OC)c2nc(Oc3c(C)cc(Cl)cc3Cl)n(C)c12 | 177 to 178 °C
C[Si](C)(O)O[Si](C)(C)c1ccc(OC(=O)Oc2ccc([Si](C)(C)O[Si](C)(C)O)cc2)cc1 | 62 to 63 °C
CCOC(=O)C[C@@H]1CCC/C1=C\Cc1c(O)c2c(c(C)c1CC)COC2=O | 95 to 95.7 °C
O=C(N[C@H](Cc1ccc(C(F)(F)F)cc1)[C@@H](O)c1ccc(F)cc1)C1CCCCC1 (racemic) | 203 to 204 °C
O=c1[nH]ncc2c1c(O)nc1ccc(Cl)c(Cl)c12 | 270 °C
FC(F)=C(F)CCCCSc1nnc(-c2ccc(C(F)(F)F)cc2)o1 | 40 °C
CC(CC=Cc1ccccc1)C1CC=C2C3=C(CCC21C)C1(C)CCC(O)C(C)(C)C1CC3 (stereo unspecified) | 127 °C
O=C(O)c1cc(Br)sc1Cl | 159 to 160 °C
C[C@H]1[C@H](O)[C@H](O)C(S(=O)(=O)c2ccccc2)=C[C@H](C)[C@H]1O[Si](C)(C)C(C)(C)C | 117 to 119 °C
CN1CC(C(=O)CN2CCOCC2)CC2c3cccc4c3c(cn4C)CC21 (stereo unspecified) | 198 to 200 °C
CCCN(CCC)C(=O)Cc1c(-c2ccc(Cl)cc2)nn2cccnc12 | 104 to 106 °C
CC(C)(C)[Si](C)(C)O[C@H]1CCNC1=O | 48 to 49 °C
Cc1c(NC(=O)c2ccc(OC[C@@H]3CCCO3)cc2)ccc2cc(CN[C@@H]3CCCC[C@H]3O)cnc12 | 142 to 143 °C
O=C1c2c(Cl)ccc(Cl)c2-c2nn(CCNCCO)c3ccc(NCCNCCO)c1c23 | 196 °C
CCc1nc(Cc2ccc(NC(=O)/C=C/c3cnn(C)c3-c3ccc(F)cc3)cc2)cs1 | 178 to 179 °C
CC1(COC2CC3C4CCC5=CC(=O)C=CC5(C)C4(F)C(O)CC3(C)C2(O)C(=O)CCl)CO1 (stereo unspecified) | 193 to 236 °C
OCc1cnc(-c2cccs2)s1 | 89 to 90 °C
CCCc1cc(O)cc2nc(-c3ccc(O)cc3)oc12 | 110 to 112 °C
COCCOc1cc(N(C)S(=O)(=O)c2ccccn2)c2[nH]c(C3=NCC(CC(=O)N(C)CCO)S3)cc2c1 (stereo unspecified) | 94 to 96 °C
CC(CS)C(=O)N1CCCC1C(=O)NC(C)C(=O)O (stereo unspecified) | 128 to 130 °C

Compound | melting point
COC(=O)c1ccc(=O)n(CCN(C)C(=O)c2cccnc2)c1 | 120 to 122 °C
O=C(c1ccccc1)N1CC2C(C1)C2N(C(=O)c1ccccc1)c1ncc2cc(-c3ccccc3Cl)c(=O)n(C3CC3)c2n1 (stereo unspecified) | 124 to 130 °C
COC(=O)c1nc(-c2ccc(Cl)cc2F)cc(N)c1OC | 139 to 144 °C
CC(=O)NC[C@H]1CN(c2ccc(-c3nsc(C(N)=O)n3)c(F)c2)C(=O)O1 | 238 to 240 °C
CCOC(=O)c1[nH]c(C)c(C(C)CC)c1C (stereo unspecified) | 102 to 104 °C
CCn1nc(C)c2nc(C)nc(NCCO)c21 | 166 to 168 °C
CCCCOCCOC(=O)C(=O)Nc1nc(-c2ccccc2)cs1 | 94 to 95 °C
O=C1CCC2CCCC3CC(=O)N1C23 (stereo unspecified) | 118 to 120 °C
COC(=O)C(C(=O)OC)C(Cc1c(N)cccc1C(F)(F)F)c1ccc(OC)cc1 (stereo unspecified) | 111 to 113 °C
CCC(O/N=C(\C(=O)O)c1csc(N)n1)C(=O)OC(C)(C)C (stereo unspecified) | 122 to 124 °C
CNC(=O)C=C(c1ccc(C#N)cc1)n1ccnc1 | 172 to 180 °C
COc1nc(OC)c(C(C)C)c(C(=O)c2cc(C)cc(C=CC#N)c2)n1 | 144 to 145 °C
COc1ccc(C=Cc2cc(F)c(OC)c(OC)c2)cc1O | 86 to 87 °C
CCn1nc2ccc(Cl)nn2c1=O | 150 to 152 °C
CCC(=O)N[C@@H](CC)c1nc2c(C(F)(F)F)cccc2c(O)c1C(=O)Nc1nccs1 | > 275 °C
C=C(C)Cn1c(S)nc2c(cnn2C)c1=O | 158 to 160 °C
Cc1ccsc1-c1cncc(Br)c1 | 58 to 59 °C
NCc1ccc2cc(O)ccc2c1 | 188 to 192 °C
COc1ccc(C(=O)c2c(C)n3c4c(cccc24)OCC3CN2CCOCC2)cc1 (stereo unspecified) | 182 to 189 °C
Cc1cc([N+](=O)[O-])ccc1Oc1cncc(Cl)c1 | 80 to 82 °C
CC(Oc1ccc(F)cc1)c1ccnn2cnnc12 (stereo unspecified) | 103 to 104 °C
COc1cc2c(cc1OC)OCCC(C(=O)O)=C2 | 209 to 210 °C
CNS(=O)(=O)NCCNC(=O)[C@@H](C[C@H](O)[C@H](C)NC(=O)OC(C)(C)C)C(C)C | 75 to 95 °C
CCNc1nc(NCc2ccco2)nc(Nc2ccc(O)cc2)n1 | 76 to 78 °C

Results, then the molecule that gave them:

melting point | Compound
63 to 64 °C | COc1ccc(-c2ccc(C)nc2-c2ccc(OCCN3CCCC3)cc2)cc1
175 °C | COc1ccc(CN2CCC(C(=O)NO)(S(=O)(=O)c3ccc(OC)cc3)CC2)cc1
102 to 108 °C | [N-]=[N+]=C1c2ccccc2-c2ccc(Cl)cc21
84 to 85 °C | CC(=Cc1ccc(Cl)cc1Cl)c1ccc(Cl)cc1
148 to 149 °C | N/C(=C1/Sc2ccccc2C1=O)c1ccccc1C(F)(F)F
157 to 161 °C | CCOC(=O)CC(O)(CC)c1cc2n(c(=O)c1CO)Cc1cc3ccccc3nc1-2 (stereo unspecified)
290 to 292 °C | O=C1CCC(N2C(=O)c3ccc(CNC(=O)Nc4ccc(Cl)c(Cl)c4)cc3C2=O)C(=O)N1 (stereo unspecified)
91 to 93 °C | c1cc(OC[C@H]2CO2)cc(-c2noc3ncccc23)c1
228 °C | O=C1Cc2ccccc2Oc2ccc(CC(O)(P(=O)(O)O)P(=O)(O)O)cc21
266 °C | COc1cc2nc(N3CCN(c4ccnc(Cl)n4)CC3)nc(N)c2cc1OC
136 to 138 °C | CCN(CCCC1CCN(CC(=O)N2c3ccccc3C(=O)Nc3cccnc32)CC1)C(=O)C(C)(C)CC
125 to 127 °C | COc1ccc(NC(=O)c2ccc(Br)o2)cc1N1CCN(C)CC1
> 300 °C | CCn1c(-c2sc(NC(=O)c3ccncc3)nc2-c2ccco2)cccc1=O
250 to 253 °C | CN1CCN(C(=O)c2cc(-c3ccccc3)c(=O)[nH]c2-c2c(Cl)cccc2C#N)CC1
81 to 82 °C | COCCN(C)c1nccc(Oc2ccc(NC(=O)c3cc(F)cc(N4CCCCC4)c3)c3ccccc23)n1
129 to 130 °C | O=C(OCCc1c(-c2ccccc2)n2nnnc2n2ncnc12)C12CC3CC(CC(C3)C1)C2
174 °C | NS(=O)(=O)Nc1cccc(-c2cccc(-c3nc(-c4ccc(C(F)(F)F)cc4)cc(C(F)(F)F)n3)c2)c1
136 to 138 °C | NCC1CCN(c2nc3ccccc3[nH]2)CC1
244 to 246 °C | CC1(C)CCCC(C)(C)N1Cc1ccc2cc(NC(=O)c3ccc(-c4ccc(Cl)cc4)cc3)ccc2c1
221 °C | Cc1nc(Cl)c2c(c1O)COC2(c1ccccc1)c1cccc(Cl)c1Cl (stereo unspecified)
145 to 164 °C | COc1ccc(N2CCN(c3c(C)c(C)c4c(c3C)CC(C)(CN3CCS(=O)(=O)CC3)O4)CC2)cc1 (stereo unspecified)
224 to 226 °C | O=C(O)/C=C1/c2ccccc2N(C(=O)c2ccc(NC(=O)c3ccccc3-c3ccccc3)cc2)CCC1(F)F
181 to 182 °C | CN(c1cccc2cc(-c3ncc(CN4CCOCC4)s3)[nH]c12)S(=O)(=O)c1cccs1
192 to 193 °C | O=C1c2ccccc2S(=O)(=O)N1C(c1cccs1)c1nnnn1-c1ccccc1 (stereo unspecified)

melting point | Compound
227 to 229 °C | Cc1nc(Nc2ccccc2)sc1-c1ccnc(Nc2ccc(N3CCN(Cc4ccccc4)CC3)cc2)n1
> 200 °C | CN(C)CCCCCCNC(=O)c1ccc(-c2cnc3c(c2)N(Cc2ccccc2)C(=O)CN3)cc1
253 °C | O=c1[nH]c2ccccc2c(=O)n1CCN1CCC(c2noc3cc(F)ccc23)CC1
300 °C | O=C(O)COc1ccc2c(=O)c3c(F)cccc3oc2c1Cl
127 to 128 °C | Cc1oc(-c2ccccc2)nc1CCOc1ccc(/C=C/CO)cc1
120 to 121 °C | O=C1CCCCCC1C(C[N+](=O)[O-])c1ccc(OCc2ccccc2)cc1 (racemic)
87 to 89 °C | CCCC(NC(=O)Cc1ccc(C(=O)O)c(OCC)c1)c1ccccc1N1CCCCC1 (stereo unspecified)
155 to 156 °C | CCOP(=O)(OCC)C(F)(F)c1ccc(NC(=O)CCc2oc(-n3cnc4ccccc43)nc2-c2ccc(Cl)cc2)cc1
162 to 164 °C | CSC(=N)N(C#N)C(c1ccccn1)c1ccccc1C (stereo unspecified)
99 to 100 °C | Cc1cc([N+](=O)[O-])cc(C)c1Oc1ccc(OCc2ccccc2)c(C(C)C)c1
> 290 °C | N=C(NO)c1ccc(-c2cccc(-c3nc4ccc(C(=N)NO)cc4[nH]3)n2)cc1
178 to 183 °C | Cc1c(NC(=O)C(CSC(=O)C(C)C)Cc2ccccc2)cccc1C(=O)O (stereo unspecified)
144 to 145 °C | Nc1cccc(CN2CCN(C(c3ccccc3)c3ccccc3)CC2)n1
139 to 141 °C | CCOC(=O)c1nn(-c2ccccc2)c2c1CSc1ccccc1-2
202 °C | CN1CCC(c2c[nH]c3cc(F)c(OS(=O)(=O)c4c(F)cccc4F)cc23)CC1
73 to 75 °C | Cc1cccc2c(-c3ccccc3)onc12
136 to 137 °C | CC(=O)NCC1CN(c2ccc(N3CCN(C(=O)COC(=O)CCN(C)C)CC3)c(F)c2)C(=O)O1 (stereo unspecified)
242 to 244 °C | O=C(Cn1ccnc1)c1cc(Br)cc2ccccc12
234 to 235 °C | O=C(CCn1c(=O)c(=O)[nH]c2cc(C(F)(F)F)c(-n3cccc3)cc21)NCc1ccccc1
239 to 240 °C | COc1cc(C#N)ccc1-c1ccnc(-c2ccc(C#N)cc2)n1
123 to 125 °C | COC(=O)CCC(=O)N(O)c1cccc(OCc2nc3ccccc3s2)c1
131 to 133 °C | CCn1c2ccccc2c2cc(/C=C(\C#N)c3cccnc3)ccc21
233 to 234 °C | CCOc1ccc(S(=O)(=O)N(CC(=O)NN=C2C(=O)Nc3ccc(I)cc32)c2ccccc2)cc1
256 to 258 °C | O=C(O)Cc1c(C(=O)O)c2cc(Oc3ccc(C(F)(F)F)cc3)ccc2n1-c1ccc(C2CCNCC2)cc1
